Results on 21 compounds are retold here after ChEMBL document CHEMBL3632610, “Expanding the structural diversity of Bcr-Abl inhibitors: Dibenzoylpiperazin incorporated with 1H-indazol-3-amine” (Eur J Med Chem, 2015).

In one experiment the test system is K562. Kind of experiment: Cytotoxicity against human K562 cells expressing Bcr-Abl assessed as growth inhibition after 48 hrs by MTT assay. The conditions noted are these: K562, 48 h. (Tetrazolium assays rely on reduction of a dye to a coloured formazan, in cell work by metabolically active cells.)
Experiment [1] deals with Bcr/Abl fusion protein (Homo sapiens, UniProt P00519, T315I). Kind of experiment: Inhibition of Bcr-Abl T315I mutant (unknown origin) by ADP-Glo assay. Type of experiment: protein assay. (In general: ADP-Glo first removes unused ATP, then detects ADP through luciferase.)
Experiment [2] concerns the target Bcr/Abl fusion protein (Homo sapiens, UniProt P00519). Put plainly: Inhibition of wild type Bcr-Abl (unknown origin) by ADP-Glo assay. In kind it is protein assay.

Where only a bound is given, the exact number is not on record here.

For the compound `COc1cc(OC)cc(C(=O)N2CCN(C(=O)c3ccc(-c4cccc5[nH]nc(N)c45)cc3)CC2)c1`, the half-inhibitory concentration (IC50) in the experiment on K562 was 105 µM; at Bcr/Abl fusion protein [1], greater than 100 µM.

In the case of `Nc1n[nH]c2cccc(-c3ccc(C(=O)N4CCN(C(=O)c5ccc(Cl)cc5Cl)CC4)cc3)c12`, the IC50 against Bcr/Abl fusion protein [2] is 0.014 µM; with K562, 6.5 µM; on Bcr/Abl fusion protein [1], 0.45 µM.

In the case of `Nc1n[nH]c2cccc(-c3ccc(C(=O)N4CCN(C(=O)c5cccc(F)c5)CC4)cc3)c12`, the IC50 was 0.086 µM on Bcr/Abl fusion protein [2], 30.2 µM in the experiment with K562 and 2.07 µM against Bcr/Abl fusion protein [1].

Turning to `COc1cccc(C(=O)N2CCN(C(=O)c3ccc(-c4cccc5[nH]nc(N)c45)cc3)CC2)c1`, the results for the IC50 at Bcr/Abl fusion protein [2], in the experiment on K562 and against Bcr/Abl fusion protein [1] were 49.2 µM, 9.6 µM and greater than 100 µM, respectively.

For `Nc1n[nH]c2cccc(-c3ccc(C(=O)N4CCN(C(=O)c5ccccc5Cl)CC4)cc3)c12`, the IC50 on Bcr/Abl fusion protein [2] worked out at 0.084 µM; with K562, 53.7 µM; against Bcr/Abl fusion protein [1] it was 3.41 µM.

Regarding `Nc1n[nH]c2cccc(-c3ccc(C(=O)N4CCN(C(=O)c5ccccc5Br)CC4)cc3)c12`, the IC50 at Bcr/Abl fusion protein [2] was 0.18 µM; with K562 it was 47.3 µM; on Bcr/Abl fusion protein [1], 0.74 µM.

In the case of `Nc1n[nH]c2cccc(-c3ccc(C(=O)N4CCN(C(=O)c5cccc(C(F)(F)F)c5)CC4)cc3)c12`, the IC50 against Bcr/Abl fusion protein [2] was 2.76 µM; with K562, 18.1 µM; against Bcr/Abl fusion protein [1], 94.6 µM.

For the compound `Nc1n[nH]c2cccc(-c3ccc(C(=O)N4CCN(C(=O)c5ccc(F)c(F)c5)CC4)cc3)c12`, the IC50 against Bcr/Abl fusion protein [2] was greater than 100 µM; in the experiment with K562, 21.5 µM; against Bcr/Abl fusion protein [1], 83.5 µM.

On to `COc1ccc(C(=O)N2CCN(C(=O)c3ccc(-c4cccc5[nH]nc(N)c45)cc3)CC2)cc1`, for which the figures for the half-inhibitory concentration (IC50) at Bcr/Abl fusion protein [2], in the experiment with K562 and on Bcr/Abl fusion protein [1] were greater than 100 µM, 69.7 µM and greater than 100 µM, respectively.

On to `Cc1cccc(C(=O)N2CCN(C(=O)c3ccc(-c4cccc5[nH]nc(N)c45)cc3)CC2)c1`, for which the IC50 on Bcr/Abl fusion protein [2] is 2.37 µM; in the experiment on K562, 21.8 µM; on Bcr/Abl fusion protein [1] it was greater than 100 µM.

`Nc1n[nH]c2cccc(-c3ccc(C(=O)N4CCN(C(=O)c5ccc(Cl)cc5)CC4)cc3)c12`: the concentration for half-maximal inhibition (IC50) was determined as 1.89 µM at Bcr/Abl fusion protein [2], 10.5 µM with K562 and 65.6 µM against Bcr/Abl fusion protein [1].

For `COc1ccccc1C(=O)N1CCN(C(=O)c2ccc(-c3cccc4[nH]nc(N)c34)cc2)CC1`, the 50% inhibitory concentration (IC50) at Bcr/Abl fusion protein [2] was 22.8 µM; in the experiment with K562, 32.1 µM; on Bcr/Abl fusion protein [1] it was greater than 100 µM.

As for `Cc1ccccc1C(=O)N1CCN(C(=O)c2ccc(-c3cccc4[nH]nc(N)c34)cc2)CC1`, the half-inhibitory concentration (IC50) is 8.56 µM on Bcr/Abl fusion protein [2], 17.2 µM with K562 and greater than 100 µM against Bcr/Abl fusion protein [1].

Turning to `Nc1n[nH]c2cccc(-c3ccc(C(=O)NCCNC(=O)c4ccc(F)c(F)c4)cc3)c12`, the IC50 against Bcr/Abl fusion protein [2] was determined as 14.3 µM; in the experiment on K562, 28.4 µM; against Bcr/Abl fusion protein [1] it was 75.3 µM.

For the compound `Nc1n[nH]c2cccc(-c3ccc(C(=O)NCCNC(=O)c4ccccc4Br)cc3)c12`, the half-maximal inhibitory concentration (IC50) on Bcr/Abl fusion protein [2] was 0.031 µM; in the experiment on K562, 13.1 µM; against Bcr/Abl fusion protein [1], 1.04 µM.

In the case of `Cc1ccccc1C(=O)NCCNC(=O)c1ccc(-c2cccc3[nH]nc(N)c23)cc1`, the figures for the IC50 on Bcr/Abl fusion protein [2], in the experiment with K562 and at Bcr/Abl fusion protein [1] were 0.018 µM, 8 µM and 28.8 µM, respectively.

For `Nc1n[nH]c2cccc(-c3ccc(C(=O)NCCNC(=O)c4cccc(C(F)(F)F)c4)cc3)c12`, the concentration for half-maximal inhibition (IC50) against Bcr/Abl fusion protein [2] was found to be 0.45 µM; in the experiment with K562, 61.9 µM; against Bcr/Abl fusion protein [1] it was 56.3 µM.

Turning to `Nc1n[nH]c2cccc(-c3ccc(C(=O)NCCNC(=O)c4cccc(F)c4)cc3)c12`, the IC50 in the experiment on K562 is 26.9 µM; against Bcr/Abl fusion protein [1], greater than 100 µM.

Take `COc1ccccc1C(=O)NCCNC(=O)c1ccc(-c2cccc3[nH]nc(N)c23)cc1`: the half-inhibitory concentration (IC50) is 0.25 µM against Bcr/Abl fusion protein [2], 13.9 µM in the experiment on K562 and greater than 100 µM against Bcr/Abl fusion protein [1].

In the case of `COc1ccc(C(=O)NCCNC(=O)c2ccc(-c3cccc4[nH]nc(N)c34)cc2)cc1`, the IC50 against Bcr/Abl fusion protein [2] was greater than 100 µM; in the experiment with K562, 258 µM; against Bcr/Abl fusion protein [1], greater than 100 µM.

With `Cc1nc(Nc2ncc(C(=O)Nc3c(C)cccc3Cl)s2)cc(N2CCN(CCO)CC2)n1` [DASATINIB], the half-inhibitory concentration (IC50) in the experiment on K562 came to 0.45 µM.

By IC50 is commonly meant the concentration that gives 50% inhibition.
